# The source made the active and inactive calls. The rule behind the calls is not given here.
# Tests used:
# Endothelial cell [1] = test: Induction of necrosis in neural stem cells co-cultured with vascular endothelial cells assessed as LDH release at 70 ug/mL after 10 hrs relative to control; format: functional, cell-based; settings: Mus musculus
# Endothelial cell [2] = test: Induction of apoptosis in neural stem cells co-cultured with vascular endothelial cells assessed as neurites degeneration at 70 ug/mL after 10 hrs; format: functional, cell-based; settings: Mus musculus
# [3] = Increase in apoptosis rate in neural stem cells co-cultured with vascular endothelial cells assessed as cell survival at 70 ug/mL after 10 hrs; format: functional; settings: Mus musculus, read-out: Activity
# Neural stem cell = test: Induction of apoptosis in neural stem cells assessed as cell viability at 10 to 100 ug/mL by MTT assay; format: functional, cell-based; settings: Mus musculus
# Endothelial cell [4] = test: Induction of apoptosis in neural stem cells co-cultured with vascular endothelial cells assessed as nuclear condensation at 70 ug/mL after 10 hrs; format: functional, cell-based; settings: Mus musculus
# Endothelial cell [5] = test: Induction of apoptosis in neural stem cells co-cultured with vascular endothelial cells assessed as inhibition of cell differentiation at 70 ug/mL after 10 hrs; format: functional, cell-based; settings: Mus musculus
# Endothelial cell [6] = test: Induction of apoptosis in neural stem cells co-cultured with vascular endothelial cells assessed as DNA fragmentation at 70 ug/mL after 10 hrs; format: functional, cell-based; settings: Mus musculus
smiles,measurement,setting,value
c1cc2c(cc1CC1CO1)OCO2 (configuration not stated),Activity,Endothelial cell [1],inactive
same,Activity,Endothelial cell [2],Active
same,viability at 70 µg/mL,[3],92%
same,Activity,Neural stem cell,inactive
same,Activity,Endothelial cell [4],Active
same,Activity,Endothelial cell [5],Active
same,Activity,Endothelial cell [6],Active
